According to US20150087619A1, “METHOD OF MITIGATING VIRUS ASSOCIATED END-ORGAN DAMAGE” (CHIMERIX, INC., priority 2012, published 2015):
Several values for one entry are separate records, joined by “and”; a condition that tells them apart may be missing. Identical values can stand only once. Entries after “also recorded” stand apart in the source; their conditions may differ.

Assays:
[1] = Phase 1 comparative bioavailability (solution vs tablet) and food effect study; details: for Plasma HDP-CDV CL/F / Plasma HDP-CDV Tmax / Plasma HDP-CDV AUC0-inf / Plasma HDP-CDV AUC0-last / Plasma HDP-CDV Cmax / Plasma HDP-CDV t1/2: single oral dose; for Plasma HDP-CDV CL/F / Plasma HDP-CDV Tmax / Plasma HDP-CDV AUC0-inf / Plasma HDP-CDV AUC0-last / Plasma HDP-CDV Cmax / Plasma HDP-CDV t1/2 / Plasma Cidofovir CL/F: healthy volunteers; for Plasma HDP-CDV CL/F / Plasma HDP-CDV AUC0-inf / Plasma HDP-CDV AUC0-last / Plasma HDP-CDV Cmax / Plasma HDP-CDV t1/2 / Plasma Cidofovir CL/F: mean; for Plasma HDP-CDV Tmax: median;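 on all read-outs here: plasma levels quantified by validated LC-MS/MS, LLOQ 0.1 ng/mL for HDP-CDV and 0.5 ng/mL for CDV, crossover design with 14-day washout between single doses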
[2] = system: HHV-6(B); test: In vitro antiviral activity in cell culture; format: cell-based
[3] = system: VZV; test: Virus spread in VZV-infected cultures; format: cell-based; details: 1 day of 20 μg/mL in the medium, given on Day −1, 0, 2, or 3
[4] = system: BKV; test: Study HDP-CDV-201: hematuria and BKV bladder events; format: in vivo, human
Protocol: A multicenter, randomized, double-blind, placebo-controlled, dose-escalation study of safety, tolerability, and ability of HDP-CDV to prevent or control […], and EBV infection and associated disorders was conducted. During enrollment of patients in the study, urine samples of candidate patients were routinely screened for BKV. Plasma was collected from patients who tested positive for BKV viruria in urine, and AdV, EBV and BKV level in the plasma was evaluated.

[5] = system: BKV; test: Study HDP-CDV-201: serum creatinine as marker of renal function; details: for Creatinine level and renal function vs placebo: BKU+ at baseline (post-HSCT engraft)
[6] = system: EBV; test: HDP-CDV given to patients with viral infections, virology data; details: 4 mg/kg BIW
[7] = system: CMV; test: as above; details: patient
[8] = system: HSV-1; test: In vitro antiviral activity in cell culture; format: cell-based; details: Human alphaherpesvirus 1; HSV-1, cell culture
[9] = system: ADV; test: HDP-CDV given to patients with viral infections, virology data
[10] = 40 mg tablet, fed (high fat breakfast)
[11] = patient 21 mo, 10 kg, 2 mg/kg BIW
[12] = patient, 67 kg, 2 mg/kg BIW, 4 mg/kg BIW
[13] = patient, 70 kg, 2 mg/kg every three days

## CCCCCCCCCCCCCCCCOCCCOP(=O)(O)COC(CO)Cn1ccc(N)nc1=O (centres unmarked) [HDP-CDV]
[1]; 40 mg solution, fasted
  Plasma HDP-CDV CL/F: 77.5 L/h
  Plasma HDP-CDV Tmax: 2.00 h
[1]; 40 mg tablet, fasted
  Plasma HDP-CDV AUC0-inf: 496 ng·h/mL
  Plasma HDP-CDV AUC0-last: 473 ng·h/mL
  Plasma HDP-CDV CL/F: 86.1 L/h
  Plasma HDP-CDV Cmax: 73.9 ng/mL
  Plasma HDP-CDV t1/2: 7.52 h
  Plasma HDP-CDV Tmax: 3.00 h
[1]; [10]
  Plasma HDP-CDV AUC0-inf: 367 ng·h/mL
  Plasma HDP-CDV AUC0-last: 340 ng·h/mL
  Plasma HDP-CDV CL/F: 119 L/h
  Plasma HDP-CDV Cmax: 39.4 ng/mL
  Plasma HDP-CDV t1/2: 6.65 h
  Plasma HDP-CDV Tmax: 6.00 h
[1]; 40 mg tablet, high fat meal vs fasted
  food effect on HDP-CDV absorption and bioavailability: reduced peak concentration and delayed Tmax; also recorded: significant food effect
[1]; after 40 mg HDP-CDV solution, fasted
  Plasma Cidofovir CL/F: 40.8 L/h
[1]; after 40 mg HDP-CDV tablet, fasted
  Plasma Cidofovir CL/F: 44.3 L/h
[1]; after 40 mg HDP-CDV tablet, fed
  Plasma Cidofovir CL/F: 46.9 L/h
[1]; after 40 mg HDP-CDV tablet, high fat meal vs fasted
  food effect on CDV concentrations: unaffected by the presence of food; also recorded: no food effect
[1]; fed tablet (test), TOST
  HDP-CDV Ln(AUCinf) Test Geometric LSM: 343.5310 ng·h/mL
  HDP-CDV Ln(AUClast) Test Geometric LSM: 323.8453 ng·h/mL
  HDP-CDV Ln(Cmax) Test Geometric LSM: 37.0360 ng/mL
[1]; in vivo
  HDP-CDV Ln(AUCinf) Ratio [% Ref]: 72.17 % Ref
  HDP-CDV Ln(AUClast) Ratio [% Ref]: 70.89 % Ref
  HDP-CDV Ln(Cmax) Ratio [% Ref]: 52.56 % Ref
[1]; solution and tablet formulation, 40 mg
  absorption following a single oral administration: readily absorbed
[2]
  EC50: 7 nM
[3]
  reduction of virus spread: 2-3 Log10
[4]; BK viruria positive (BKU+) at Baseline, 4 of 77, placebo 33%
  developed Hem+ during the Study: 5%
[4]; BKU+ subjects at Baseline (6/77), placebo 12.5-13%
  clinical bladder adverse events related to BKV: 8% and 7.8%
[4]; BKU− subjects
  Hem+: 4%
[4]; BKV viruria negative (BKU−) at baseline, FIG. 1
  Hem+ vs placebo: no significant difference
[4]; HDP-CDV treatment vs placebo
  BKV associated adverse bladder events: decreased frequency; also recorded: decreased the incidence; also recorded: beneficial effect
[4]; HDP-CDV- compared to placebo-treated
  rate of confirmed blood positive urinalyses relative to placebo-treated subjects: ⅙^th
[4]; HSCT patients with BKV at base line (BKU+), FIG. 1
  Hematuria (Hem+) vs placebo: prevented Hematuria; also recorded: reduces hematuria
[4]; all HDP-CDV subjects (6/171), placebo 5.1%
  BK-related bladder events (cystitis or blood in urine): 3.5%
[4]; all HDP-CDV-treated subjects (8/171), placebo 15.2%
  rate of blood positive urinalyses during the treatment period: 4.7%
[4]; received 40 mg QW
  subjects with BK-related bladder AEs: 2
[4]; subjects shedding BKV in their urine
  microscopic hematuria: reduction in microscopic hematuria
[4]; subjects who received doses >100 mg QW (4/171)
  BK-related bladder AEs: 2.3%
[4]; subjects with BKV viruria during the treatment period
  difference between pooled HDP-CDV- and placebo-treated groups in rates of confirmed blood positive urinalyses: ~6 fold
[4]; subjects with BKV viruria during the treatment period (4/171), placebo 13.6%
  rate of confirmed blood positive urinalyses: 2.3%
[4]; subjects without BK viruria, placebo 1.7%
  rate of blood positive urinalyses: 2.4%
[5]; 105 subjects consistently BK negative
  rates of creatinine elevations or creatinine or heme+ urine, HDP-CDV vs placebo: numerically similar
[5]; BK negative throughout (7/78), placebo 7.4%
  creatinine elevations >120 microM and =>25% increase over baseline: 9.0%
[5]; BK negative throughout (11/78), placebo 11.1%
  creatinine elevations (>120 last and >25% increase from baseline) OR 1+ heme, confirmed, new onset: 14.1%
[5]; BK positive during treatment (7/93), placebo 18.75%
  end of treatment creatinine elevations >120 microM and =>25% over baseline: 7.5%
[5]; BK positive during treatment (11/93), placebo 37.5%
  creatinine elevations (>120 last and >25% increase from baseline) OR 1+ heme, confirmed, new onset: 11.8%
[5]; BK-positive subjects
  difference in frequency between treatments, creatinine elevations or new onset heme+ urinalyses: 3.2 fold
[5]; FIG. 2
  Creatinine level and renal function vs placebo: prevented increase in Creatinine level and worsening of renal function
[5]; FIG. 2, listed as HDP-cidofovir
  Creatinine level and renal function vs placebo: reduces renal impairment
[5]; BKU+ subjects (10/77), placebo 29%
  developed renal impairment: 13%
[5]; BKU− at baseline, FIG. 2
  end organ damage vs placebo: did not impact the end organ damage
[5]; BKU− subjects (6/94), placebo 6%
  renal impairment: 6%
[5]; Study HDP-CDV-201 retrospective analysis
  efficacy of twice weekly dosing: equally or more effective
[5]; subjects BK viruric during the treatment period
  reduction of the incidence of renal dysfunction (creatinine elevations) vs placebo: 2.5 fold
[6]; patient 6 months, 6 kg, EBV associated PTLD, four days after starting
  decrease in EBV levels in blood: There was approximately a 5-fold decrease
[6]; patient 22 months, 13.8 kg, from >50,000,000 copies/mL
  blood EBV viral load after one month of therapy: copies/mL to 100,000 copies/mL over one
[6]; patient, 27 kg, EBV-associated PTLD
  replication of EBV as measured by plasma PCR: There is no evidence of on-going
[7]; 61 kg, GCV res (UL97), 3 mg/kg BIW, first month of dosing
  decrease in CMV viremia: GCV res (UL97). There was a 1.9 log10
[7]; 63.3 kg, refractory CMV, UL97 and UL54 mutations, 4 mg/kg BIW, from 9200 copies/mL
  CMV viremia 4 days after the third dose: first day of dosing to 1000 copies/mL 4
[7]; 63.3 kg, refractory CMV, 4 mg/kg BIW
  CMV after dosing interruption: interrupted resulting in virologic rebound.
[7]; 69 kg, 2 mg/kg, 1 mg/kg second dose, then 2 mg/kg BIW, after discontinuation of ganciclovir
  CMV suppression during therapy: CMV suppression continued during HDP-
[7]; 72.8 kg, post lung transplant CMV, 3 mg/kg BIW
  CMV viremia during therapy: There was no change in CMV viremia
[8]
  EC50: 60 nM
[9]; patient 9 months, 6.58 kg, disseminated ADV, 3 mg/kg BIW
  ADV in stool on therapy: decreased by a similar amount.
[9]; patient 16 mo, 10.4 kg, 4 mg/kg BIW, 3 weeks
  stool ADV decline: ADV declined approximately 1 log10 over
[9]; patient 16 mo, 10.4 kg, 4 mg/kg BIW, from 809 c/ml
  Plasma ADV after 3 weeks of therapy: declined from 809 c/ml to undetectable
[9]; [11]
  plasma ADV viremia after discontinuation (rebound): CDV when it rebounded to 100 copies/ml.
  response in stool viral load: load (<10-fold).
[9]; patient 21 mo, 10 kg, 2 mg/kg BIW, baseline 100 copies/mL
  plasma ADV viremia on treatment: became undetectable and stayed
[9]; patient, 14.1 kg, 4 mg/kg BIW
  decrease in plasma ADV: ADV2. A ~2 log10 decrease in plasma
[9]; patient, 19.1 kg, disseminated ADV, 60 mg BIW, from 51,000 c/mL
  ADV in blood 4 days after one dose: 100 c/mL in 4 days after one dose.
[9]; patient, 65 kg, 2 mg/kg BIW, to the limit of detection
  Adenovirus decline in plasma: ADV 5 (plasma). Adenovirus declined 2.6 log10
[9]; [12]
  ADV viruria initial decline: respond well initially with a 2.4 log10
  ADV viruria rebound, distance from baseline: decline only to rebound to within 0.7 log10
[9]; patient, 67 kg, 2 mg/kg BIW, 4 mg/kg BIW, from 5.1 log10 to the limit of detection
  ADV plasma viremia decline: declined 3.1 logs from 5.1 log10 to the limit
[9]; [13]
  ADV viremia approximately two weeks after D/C: HDP-CDV, ADV viremia rebounded.
  Colon biopsy for ADV after therapy: negative
[9]; patient, 70 kg, 2 mg/kg every three days, after 3 weeks
  ADV viremia decrease: > 3 log10
[9]; patient, 70 kg, 2 mg/kg every three days, from 430,000 copies/mL
  ADV viremia after 3 weeks: copies/mL to undetectable after 3 weeks
[9]; patient, 81 kg, ADV pneumonia, 2 mg/kg BIW
  stool viral load: modest decline in stool viral load.
[9]; patient, 81 kg, ADV pneumonia, 2 mg/kg BIW, 10 days/4 doses
  Plasma ADV decline: ADV 12. Plasma ADV declined 2.4 log10
[9]; patient, 108 kg, 3 mg/kg first dose, 2 mg/kg BIW thereafter, after approximately 2-3 weeks
  ADV viremia decrease: ~2 log10
[9]; patient, 4 mg/kg BIW, 3 doses, from 1.5 million
  ADV viremia after first two weeks: ADV viremia from 1.5 million to 98,000 c/ml
[9]; patient, 4 mg/kg BIW, first two weeks, 3 doses
  decrease in ADV viremia: This patient had a 1.2 log10 decrease in
